Patent publication US20250115620A1, “BRIDGED TRICYCLIC CARBAMOYLPYRIDONE COMPOUNDS AND USES THEREOF” (Gilead Sciences, Inc., priority 2022, published 2025)
Read-outs that look alike come from different tables or passages of the source.

Assays:
in vitro = conditions: human, uninfected MT-4 cells
HIV-1 (IIIB) = assay: microbe, parasite or virus in culture; assay type: cell-based; conditions: Human immunodeficiency virus 1, IIIB, MT4, 120 h, read-out: MT4 EC50
pLAI reporter virus = assay: microbe, parasite or virus in culture; assay type: cell-based, HIV; conditions: Human immunodeficiency virus 1, MT4, 72 h
[1] = HIV-1 (IIIB) in MT-4 cells, 5 days incubation, Cell Titer Glo

With `COc1ccc(CN2C(C)=NO[C@@]23CC[C@H](C)N2C[C@H]3n3cc(C(=O)NCc4ccc(F)cc4F)c(=O)c(O)c3C2=O)cc1` [Example 147, (3′S,5R,7′R)—N-(2,4-difluorobenzyl)-12′-hydroxy-4-(4-methoxybenzyl)-3,3′-dimethyl-1′,11′-dioxo-1′,4′,5′,11′-tetrahydro-3′H,4H,7′H-spiro[[1,2,4]oxadiazole-5,6′-[2,7]methanopyrido[1,2-a][1,4]diazonine]-10′-carboxamide] the CC50 at 5 days (in vitro) was 7530 nM, the EC50 (HIV-1 (IIIB); [1]) was 4.1 nM and the EC50 (pLAI reporter virus; read-out: RLUC 50% HS EC50) was 12.3 nM. For the same compound, the EC50 (pLAI reporter virus; read-out: RLUC CCM EC50) was 1.3 nM.

Work on `C[C@H]1CC[C@@]2(CC(O)CO2)[C@H]2CN1C(=O)c1c(O)c(=O)c(C(=O)NCc3c(F)cc(F)cc3F)cn12` (stereo partly drawn) [Example 123, (2R,3′S,7′R)-4,12′-dihydroxy-3′-methyl-1′,11′-dioxo-N-(2,4,6-trifluorobenzyl)-1′,4,4′,5,5′,11′-hexahydro-3H,3′H,7′H-spiro[furan-2,6′-[2,7]methanopyrido[1,2-a][1,4]diazonine]-10′-carboxamide] yielded a CC50 at 5 days (in vitro) of no less than 50000 nM, an EC50 (HIV-1 (IIIB); [1]) of 8.4 nM and an EC50 (pLAI reporter virus; read-out: RLUC 50% HS EC50) of 1.4 nM. It also gave an EC50 (pLAI reporter virus; read-out: RLUC CCM EC50) of 2.1 nM.

With `COC1=NO[C@@]2(CC[C@H](C)N3C[C@H]2n2cc(C(=O)NCc4ncc(F)c(Cl)c4F)c(=O)c(O)c2C3=O)C1` [Example 64, (3′S,5S,7′R)—N-((4-chloro-3,5-difluoropyridin-2-yl)methyl)-12′-hydroxy-3-methoxy-3′-methyl-1′,11′-dioxo-1′,4′,5′,11′-tetrahydro-3′H,4H,7′H-spiro[isoxazole-5,6′-[2,7]methanopyrido[1,2-a][1,4]diazonine]-10′-carboxamide] the CC50 at 5 days (in vitro) was 22900 nM, the EC50 (HIV-1 (IIIB)) was 2.9 nM and the EC50 (pLAI reporter virus; read-out: RLUC 50% HS EC50) was 300 nM. It also gave an EC50 (pLAI reporter virus; read-out: RLUC CCM EC50) of 0.6 nM.

For `CC1=NO[C@@]2(CC[C@H](C)N3C[C@H]2n2cc(C(=O)NCc4ccc(F)c(Cl)c4F)c(=O)c(O)c2C3=O)[C@H]1O` [Example 35, (3′S,4S,5R,7′R)—N-(3-chloro-2,4-difluorobenzyl)-4,12′-dihydroxy-3,3′-dimethyl-1′,11′-dioxo-1′,4′,5′,11′-tetrahydro-3′H,4H,7′H-spiro[isoxazole-5,6′-[2,7]methanopyrido[1,2-a][1,4]diazonine]-10′-carboxamide], the CC50 at 5 days (in vitro) was 20300 nM, the EC50 (HIV-1 (IIIB); [1]) was 0.9 nM and the EC50 (pLAI reporter virus; read-out: RLUC 50% HS EC50) was 102 nM. It also gave an EC50 (pLAI reporter virus; read-out: RLUC CCM EC50) of 0.3 nM.

`COC1=NO[C@@]2(C=C[C@H](C)N3C[C@H]2n2cc(C(=O)NCc4ccc(F)c(Cl)c4F)c(=O)c(O)c2C3=O)C1` [Example 48, (3′S,5R,7′R)—N-(3-chloro-2,4-difluorobenzyl)-12′-hydroxy-3-methoxy-3′-methyl-1′,11′-dioxo-1′,11′-dihydro-3′H,4H,7′H-spiro[isoxazole-5,6′-[2,7]methanopyrido[1,2-a][1,4]diazonine]-10′-carboxamide] showed a CC50 at 5 days (in vitro) of 22900 nM, an EC50 (HIV-1 (IIIB); [1]) of 0.4 nM and an EC50 (pLAI reporter virus; read-out: RLUC 50% HS EC50) of 8.1 nM. It also gave an EC50 (pLAI reporter virus; read-out: RLUC CCM EC50) of 0.2 nM.

For `C[C@H]1CC[C@@]2(ON=C(CF)[C@@H]2O)[C@H]2CN1C(=O)c1c(O)c(=O)c(C(=O)NCc3c(F)cc(F)cc3F)cn12` [Example 88, (3′S,4S,5R,7′R)-3-(fluoromethyl)-4,12′-dihydroxy-3′-methyl-1′,11′-dioxo-N-(2,4,6-trifluorobenzyl)-1′,4′,5′,11′-tetrahydro-3′H,4H,7′H-spiro[isoxazole-5,6′-[2,7]methanopyrido[1,2-a][1,4]diazonine]-10′-carboxamide], the CC50 at 5 days (in vitro) was no less than 50000 nM, the EC50 (HIV-1 (IIIB); [1]) was 2.6 nM and the EC50 (pLAI reporter virus; read-out: RLUC 50% HS EC50) was 280 nM. The EC50 (pLAI reporter virus; read-out: RLUC CCM EC50) was 0.3 nM.

`CC1=NO[C@]2(CC[C@H](C)N3C[C@H]2n2cc(C(=O)NCc4ccc(F)cc4F)c(=O)c(O)c2C3=O)C1O` (stereo partly drawn) [Example 24, (3′S,5S,7′R)—N-(2,4-difluorobenzyl)-4,12′-dihydroxy-3,3′-dimethyl-1′,11′-dioxo-1′,4′,5′,11′-tetrahydro-3′H,4H,7′H-spiro[isoxazole-5,6′-[2,7]methanopyrido[1,2-a][1,4]diazonine]-10′-carboxamide] gave a CC50 at 5 days (in vitro) of no less than 50000 nM, an EC50 (HIV-1 (IIIB); [1]) of 5.9 nM and an EC50 (pLAI reporter virus; read-out: RLUC 50% HS EC50) of 4.9 nM. The EC50 (pLAI reporter virus; read-out: RLUC CCM EC50) was 2.8 nM.

For `CC1C[C@@]2(CC[C@H](C)N3C[C@H]2n2cc(C(=O)NCc4c(F)cc(F)cc4F)c(=O)c(O)c2C3=O)OCO1` (stereo partly drawn) [Example 124, (3′S,4R,7′R)-12′-hydroxy-3′,6-dimethyl-1′,11′-dioxo-N-(2,4,6-trifluorobenzyl)-1′,4′,5′,11′-tetrahydro-3′H,7′H-spiro[[1,3]dioxane-4,6′-[2,7]methanopyrido[1,2-a][1,4]diazonine]-10′-carboxamide], the CC50 at 5 days (in vitro) was 29800 nM, the EC50 (HIV-1 (IIIB); [1]) was 0.8 nM and the EC50 (pLAI reporter virus; read-out: RLUC 50% HS EC50) was 0.4 nM. It also gave an EC50 (pLAI reporter virus; read-out: RLUC CCM EC50) of 0.2 nM.

`C[C@H]1CC[C@]2(CC(N(C)C)=NO2)[C@H]2CN1C(=O)c1c(O)c(=O)c(C(=O)NCc3c(F)cc(F)cc3F)cn12` [Example 52, (3′S,5S,7′R)-3-(dimethylamino)-12′-hydroxy-3′-methyl-1′,11′-dioxo-N-(2,4,6-trifluorobenzyl)-1′,4′,5′,11′-tetrahydro-3′H,4H,7′H-spiro[isoxazole-5,6′-[2,7]methanopyrido[1,2-a][1,4]diazonine]-10′-carboxamide] showed a CC50 at 5 days (in vitro) of 27000 nM, an EC50 (HIV-1 (IIIB)) of 0.9 nM and an EC50 (pLAI reporter virus; read-out: RLUC 50% HS EC50) of 6.2 nM. For the same compound, the EC50 (pLAI reporter virus; read-out: RLUC CCM EC50) was 0.3 nM.

`C[C@H]1CC[C@]2(CC=NO2)[C@H]2CN1C(=O)c1c(O)c(=O)c(C(=O)NCc3c(F)cc(F)cc3F)cn12` [Example 72, (3′S,5S,7′R)-12′-hydroxy-3′-methyl-1′,11′-dioxo-N-(2,4,6-trifluorobenzyl)-1′,4′,5′,11′-tetrahydro-3′H,4H,7′H-spiro[isoxazole-5,6′-[2,7]methanopyrido[1,2-a][1,4]diazonine]-10′-carboxamide] showed a CC50 at 5 days (in vitro) of 31900 nM, an EC50 (HIV-1 (IIIB); [1]) of 1.2 nM and an EC50 (pLAI reporter virus; read-out: RLUC 50% HS EC50) of 108 nM. For the same compound, the EC50 (pLAI reporter virus; read-out: RLUC CCM EC50) was 0.3 nM.

In the case of `C[C@H]1CC[C@]2(CC(N3CCC3)=NO2)[C@H]2CN1C(=O)c1c(O)c(=O)c(C(=O)NCc3c(F)cc(F)cc3F)cn12` [Example 74, (3′S,5S,7′R)-3-(azetidin-1-yl)-12′-hydroxy-3′-methyl-1′,11′-dioxo-N-(2,4,6-trifluorobenzyl)-1′,4′,5′,11′-tetrahydro-3′H,4H,7′H-spiro[isoxazole-5,6′-[2,7]methanopyrido[1,2-a][1,4]diazonine]-10′-carboxamide], the CC50 at 5 days (in vitro) is reported as 22300 nM, the EC50 (HIV-1 (IIIB)) is reported as 2.1 nM and the EC50 (pLAI reporter virus; read-out: RLUC 50% HS EC50) is reported as 4.9 nM. The EC50 (pLAI reporter virus; read-out: RLUC CCM EC50) was 0.4 nM.

`CCN1C[C@@]2(CC[C@H](C)N3C[C@H]2n2cc(C(=O)NCc4c(F)cc(F)cc4F)c(=O)c(O)c2C3=O)OC1=O` [Example 63, (3′S,5R,7′R)-3-ethyl-12′-hydroxy-3′-methyl-1′,2,11′-trioxo-N-(2,4,6-trifluorobenzyl)-1′,4′,5′,11′-tetrahydro-3′H,7′H-spiro[oxazolidine-5,6′-[2,7]methanopyrido[1,2-a][1,4]diazonine]-10′-carboxamide] gave a CC50 at 5 days (in vitro) of no less than 50000 nM, an EC50 (HIV-1 (IIIB); [1]) of 45.9 nM and an EC50 (pLAI reporter virus; read-out: RLUC 50% HS EC50) of 15.5 nM. For the same compound, the EC50 (pLAI reporter virus; read-out: RLUC CCM EC50) was 11.1 nM.

In the case of `COC1=NO[C@@]2(CC[C@H](C)N3C[C@H]2n2cc(C(=O)NCc4ccc(F)c(Cl)c4F)c(=O)c(O)c2C3=O)C1` [Example 49, (3′S,5S,7′R)—N-(3-chloro-2,4-difluorobenzyl)-12′-hydroxy-3-methoxy-3′-methyl-1′,11′-dioxo-1′,4′,5′,11′-tetrahydro-3′H,4H,7′H-spiro[isoxazole-5,6′-[2,7]methanopyrido[1,2-a][1,4]diazonine]-10′-carboxamide], the CC50 at 5 days (in vitro) is reported as 29800 nM, the EC50 (HIV-1 (IIIB); [1]) is reported as 0.7 nM and the EC50 (pLAI reporter virus; read-out: RLUC 50% HS EC50) is reported as 124 nM. For the same compound, the EC50 (pLAI reporter virus; read-out: RLUC CCM EC50) was 0.3 nM.
